Values of other authors, collected in patent US20250262254A1, “THERAPEUTIC COMPOSITIONS AND METHODS OF USING SEROTONIN MODULATING MICROBIOME-BASED INTERVENTIONS TO TREAT SEROTONIN-RELATED DISEASES OR DISORDERS” (HOLOBIOME, INC, priority 2019, published 2025).

Test system: mouse model
Conditions: microbiota-derived tryptamine

## NCCc1c[nH]c2ccccc12 [tryptamine]
  GI transit: accelerate GI transit
